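Briefly, cells in 96-well plates were exposed to five compound concentrations for 48 h, and endpoints were estimated by linear interpolation. At the GI50, growth is halved.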 Calls of active or inactive are those of the source. Cut-off read from the data, not from the text of the source: active = GI50 up to about 1.1 µM and inactive = higher.
Assays:
Assay in all cases: growth of human tumour cells (NCI), 48 h
[1] = system: RPMI-8226
[2] = system: OVCAR-4
[3] = system: SK-MEL-28
[4] = system: SK-OV-3
[5] = system: HOP-62
[6] = system: OVCAR-8
[7] = system: K562
[8] = system: IGROV-1
[9] = system: TK-10
[10] = system: U-251
[11] = system: HL-60
[12] = system: SK-MEL-2
[13] = system: LOX IMVI
[14] = system: NCI-H522
[15] = system: ACHN
[16] = system: EKVX
[17] = system: NCI-H23
[18] = system: Malme-3M
[19] = system: OVCAR-5
[20] = system: HOP-92

Measured: GI50

CC/C(=N\NC(=O)c1cccnc1)c1ccc2c(c1)OCCO2
inactive: [1] > 100 µM | [2] > 100 µM | [3] > 100 µM | [4] > 100 µM | [5] > 100 µM | [6] > 100 µM | [7] 76 µM | [8] > 100 µM | [9] > 100 µM | [10] > 100 µM | [11] > 100 µM | [12] > 100 µM | [13] > 100 µM | [14] 29.1 µM | [15] > 100 µM | [16] 64.1 µM | [17] > 100 µM | [18] 28.4 µM | [19] > 100 µM

C/C(=N\O)C1CC2C=C(C#N)C1N(Cc1ccccc1)C2 (stereo not given)
inactive: [20] > 100 µM | [1] > 100 µM | [3] > 100 µM | [4] > 100 µM | [5] > 100 µM | [6] 45.3 µM | [7] > 100 µM | [9] > 100 µM | [10] 46.3 µM | [11] > 100 µM | [13] > 100 µM | [15] 93.8 µM | [16] > 100 µM | [17] > 100 µM | [18] > 100 µM | [19] > 100 µM

Cc1cc(S(=O)(=O)Nc2nc(N)n[nH]2)c(S)cc1Cl
inactive: [1] > 10 µM | [2] > 10 µM | [3] > 10 µM | [4] > 10 µM | [5] > 10 µM | [6] > 10 µM | [7] > 10 µM | [8] > 10 µM | [9] > 10 µM | [10] > 10 µM | [11] > 10 µM | [12] > 10 µM | [13] > 10 µM | [14] > 10 µM | [15] > 10 µM | [16] > 10 µM | [17] > 10 µM | [18] > 10 µM | [19] > 10 µM

O=C(CNCc1ccccc1)Oc1c(Cl)c(Cl)c(Cl)c(Cl)c1Cl
inactive: [2] 44.1 µM | [3] 38.5 µM | [4] 47 µM | [5] 76.7 µM | [6] 21.4 µM | [7] 34.8 µM | [8] 33.1 µM | [9] 37.7 µM | [10] 28.5 µM | [11] 23.8 µM | [12] 29.2 µM | [13] 29.6 µM | [14] 25.3 µM | [15] 23.1 µM | [16] 22.4 µM | [17] > 100 µM | [18] 26 µM | [19] 66.5 µM

Cc1ccc2nc(-c3ccc(-c4nc5ccc(C)cc5o4)c(O)c3)oc2c1
inactive: [20] > 100 µM | [1] > 100 µM | [3] > 100 µM | [4] > 100 µM | [5] > 100 µM | [6] > 100 µM | [7] > 100 µM | [9] > 100 µM | [10] > 100 µM | [11] > 100 µM | [12] > 100 µM | [13] > 100 µM | [15] > 100 µM | [17] > 100 µM | [19] > 100 µM

c1ccc(C2Nc3ccccc3C3OCCCC23)cc1 (stereo not given)
inactive: [20] 26.4 µM | [1] 20.1 µM | [2] 47.3 µM | [6] 17.5 µM | [7] 14.6 µM | [8] 11.8 µM | [10] 17.8 µM | [11] 24.7 µM | [12] 30.7 µM | [13] 12.8 µM | [15] 11.3 µM | [16] 20.9 µM | [17] 32.8 µM | [18] 30.7 µM | [19] 38.7 µM

O=c1cc(N2CCOCC2)[nH]c(=O)n1-c1ccc(F)cc1
inactive: [1] > 100 µM | [2] > 100 µM | [3] > 100 µM | [4] > 100 µM | [5] > 100 µM | [6] > 100 µM | [7] > 100 µM | [8] > 100 µM | [9] > 100 µM | [10] > 100 µM | [11] > 100 µM | [12] > 100 µM | [13] > 100 µM | [14] > 100 µM | [15] > 100 µM | [16] > 100 µM | [17] > 100 µM | [18] > 100 µM | [19] > 100 µM

COc1ccc(C2C3=C(N=C4SC(C(C)=O)=C(C)N42)c2ccccc2CC3)cc1 (stereo not given)
inactive: [20] > 100 µM | [1] 4.91 µM | [2] > 100 µM | [3] > 100 µM | [4] > 100 µM | [5] > 100 µM | [6] > 100 µM | [8] 10.1 µM | [10] 57.9 µM | [11] 10.1 µM | [12] > 100 µM | [13] 63.8 µM | [15] > 100 µM | [17] 80 µM | [19] > 100 µM

CCN(CC)C(=O)N[C@@H](CC(C)C)C(=O)NC
inactive: [1] > 100 µM | [2] > 100 µM | [3] > 100 µM | [4] > 100 µM | [5] > 100 µM | [6] > 100 µM | [7] > 100 µM | [8] > 100 µM | [10] > 100 µM | [11] 43.3 µM | [12] > 100 µM | [13] > 100 µM | [14] > 100 µM | [15] > 100 µM | [16] > 100 µM | [17] > 100 µM | [18] > 100 µM | [19] > 100 µM

O=C(NN=C(c1ccccc1)c1ccccc1)/C(O)=C/C(=O)c1ccc(Cl)cc1
inactive: [2] 45.4 µM | [4] 73.3 µM | [5] 45.2 µM | [6] 30.1 µM | [7] 43.5 µM | [8] 27.7 µM | [9] 48.5 µM | [10] 39.1 µM | [12] 29 µM | [14] 13.5 µM | [15] 37.4 µM | [16] 30.7 µM | [17] 23.2 µM | [18] 20.7 µM | [19] > 100 µM

O=C(Oc1ccc(C(c2c(O)c3ccccc3oc2=O)c2c(O)c3ccccc3oc2=O)cc1)c1ccc(C(=O)c2ccccc2)cc1
inactive: [1] 22.6 µM | [2] 38.4 µM | [3] 13.6 µM | [4] 16.7 µM | [5] 24.1 µM | [6] 16.6 µM | [7] 22.1 µM | [8] 21.4 µM | [9] 17.9 µM | [10] 23.6 µM | [12] 17.8 µM | [13] 21.9 µM | [14] 15.4 µM | [15] 19.3 µM | [16] 16.7 µM | [17] 18.5 µM | [19] 19.4 µM

O=C(O)CCSC(=O)Nc1cccc(F)c1
inactive: [1] > 100 µM | [3] > 100 µM | [5] 14.3 µM | [6] > 100 µM | [7] > 100 µM | [8] > 10 µM | [9] > 100 µM | [10] > 100 µM | [11] 23.3 µM | [12] > 100 µM | [13] > 100 µM | [15] > 100 µM | [16] 3.55 µM | [17] > 100 µM | [19] > 100 µM

S=c1[nH]nc(Cn2c3ccc(Br)cc3c3nc4ccccc4nc32)n1C1CCCCC1
inactive: [1] 17.7 µM | [2] 13.7 µM | [3] 9.44 µM | [4] 26.5 µM | [5] 18.6 µM | [6] 22.6 µM | [7] 25.9 µM | [8] 21.4 µM | [9] > 47.8 µM | [10] 18.5 µM | [12] 23.1 µM | [14] 21.3 µM | [15] 29.4 µM | [16] 35 µM | [17] 13.8 µM | [18] 29.7 µM | [19] 32.5 µM

Sc1nnc(C(c2ccccc2)c2ccccc2)[nH]1
inactive: [3] > 100 µM | [4] > 100 µM | [5] > 100 µM | [6] > 100 µM | [7] > 100 µM | [8] > 100 µM | [9] > 100 µM | [10] > 100 µM | [11] > 100 µM | [12] > 100 µM | [13] > 100 µM | [14] 53.2 µM | [15] > 100 µM | [16] > 100 µM | [17] > 100 µM | [18] > 100 µM | [19] > 100 µM

CCOC(=O)c1nc2ccc(C(F)(F)F)cc2nc1Oc1ccc(C(=O)OC)cc1
inactive: [20] 43.2 µM | [1] > 100 µM | [2] 98.4 µM | [3] 86.1 µM | [4] > 100 µM | [5] 22.5 µM | [6] > 100 µM | [7] > 100 µM | [8] 59.4 µM | [9] 45.8 µM | [10] 36.1 µM | [11] > 100 µM | [12] 32.1 µM | [13] > 100 µM | [15] > 100 µM | [16] > 100 µM | [17] 97.5 µM

COC(=O)[C@]1(C)CCC[C@]2(C)C3CC4OOC3(C=C4C(C)C)CCC21 (stereo not given in full)
inactive: [1] 12.7 µM | [2] 19.9 µM | [4] 20.1 µM | [5] 24.5 µM | [6] 19.8 µM | [7] 12 µM | [8] 16 µM | [9] 23.4 µM | [10] 19.8 µM | [11] 2.07 µM | [12] 17.2 µM | [13] 2.77 µM | [14] 1.78 µM | [15] 17.4 µM | [16] 16.7 µM | [17] 18.8 µM | [18] 20.8 µM | [19] 19.6 µM

Reference: ChEMBL document CHEMBL1201862, “PubChem BioAssay data set” (2004)
